Drawing on ChEMBL document CHEMBL1201862, “PubChem BioAssay data set” (2004), this text covers AC50, EC50 and IC50 for ten compounds.

The target in one assay is Cytochrome P450 2D6 (Homo sapiens, UniProt P10635). The assay can be described thus: qHTS Assay for Inhibitors and Substrates of Cytochrome P450 2D6. [Related pubchem assays: 410 ]. Type of assay: ADME. Conditions: read-out: Potency.
Assay [1] has as its target ATP-dependent molecular chaperone HSP82 (Candida albicans (strain WO-1) (Yeast), UniProt C4YTQ8). In words: loss of DOC-induced GRE-beta-galactosidase reporter signal, dose response, Hsp90 inhibitor project, S. cerevisiae, luminescence (AID 2400).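 Note: beta-galactosidase luminescence from glucocorticoid response element reporter as proxy for Hsp90 function; inhibitor potency where signal loss means Hsp90 inhibition.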 Type of assay: functional, cell-based.
Assay [2] in a line: NIH-3T3 fibroblast cytotoxicity, dose response, cytotoxicity control, cell-based, fluorescence, Alamar Blue, secondary assay (AID 2327).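 Note: NIH-3T3 mouse fibroblasts cultured with fluconazole at 8 µg/mL.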 Type of assay: functional. (In general: Alamar Blue is a resazurin reagent that responds to reducing activity.)
For a further assay, the target named is Large T antigen (Simian virus 40, UniProt P03070). Type of assay: functional, Betapolyomavirus macacae.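 Note: Confirmatory-stage PubChem screen for compounds that inhibit SV40 T antigen.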
Assay [3] in a line: C. albicans growth with fluconazole, confirmation, fluorescence, retest (AID 2467). In kind it is functional, cell-based.
Assay [4] deals with T1, Serine/threonine-protein phosphatase (Candida dubliniensis (strain CD36 / CBS 7987 / NCPF 3949 / NRRLY-17841) (Yeast), UniProt B9W6M3).
T1 sequence (B9W6M3 whole entry): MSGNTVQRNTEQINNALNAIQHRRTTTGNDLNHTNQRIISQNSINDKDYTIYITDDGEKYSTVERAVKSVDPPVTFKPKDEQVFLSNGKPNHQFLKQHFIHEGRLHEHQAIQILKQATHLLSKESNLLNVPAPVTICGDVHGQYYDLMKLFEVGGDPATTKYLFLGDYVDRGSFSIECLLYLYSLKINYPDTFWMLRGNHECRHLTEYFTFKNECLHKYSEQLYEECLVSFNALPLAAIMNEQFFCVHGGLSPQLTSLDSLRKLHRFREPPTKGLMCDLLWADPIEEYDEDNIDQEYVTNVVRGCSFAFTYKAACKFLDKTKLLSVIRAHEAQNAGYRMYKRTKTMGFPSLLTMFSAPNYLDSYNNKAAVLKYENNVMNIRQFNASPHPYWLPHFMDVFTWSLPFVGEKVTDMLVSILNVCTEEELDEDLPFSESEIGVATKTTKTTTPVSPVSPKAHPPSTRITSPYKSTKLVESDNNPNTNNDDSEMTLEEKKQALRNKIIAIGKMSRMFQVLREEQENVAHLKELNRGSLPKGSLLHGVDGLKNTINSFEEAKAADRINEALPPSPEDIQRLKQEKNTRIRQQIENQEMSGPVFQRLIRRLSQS
In words: calcineurin pathway inhibitors in yeast reporter, dose response, S. cerevisiae, CDRE-lacZ, luminescence, secondary (AID 2388).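 Note: yeast reporter cells carrying a calcineurin-responsive lacZ construct stimulated with calcium chloride; luminescent beta-galactosidase reporter signal in whole cells rather than isolated phosphatase activity; potency for inhibition where a drop in reporter signal means calcineurin blockade.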 In kind it is functional, cell-based.

Assay [5] in a line: HIV-1 Env-mediated cell fusion inhibitors, dose response, CCR5-tropic Env (AID 2279). Type of assay: functional.
A short description of assay [6]: Luminescence-based dose response cell-based high throughput screening assay for cytotoxic compounds using the IEC-6 intestinal epithelial cell line. [Related pubchem assays: 1858 (Summary AID.), 1825 (Counterscreen.), 1907 (Confirmation screen.)]. In kind it is functional.
For assay [7], the target named is T2, Neuropeptide Y receptor type 2 (Homo sapiens, UniProt P49146).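 Note: HEK293 cells expressing the receptor and a CNG channel; stimulus was NPY near EC95 followed by isoproterenol to raise cAMP; antagonist potency measured as restoring cAMP signal that NPY suppresses.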
T2 sequence (P49146 whole entry): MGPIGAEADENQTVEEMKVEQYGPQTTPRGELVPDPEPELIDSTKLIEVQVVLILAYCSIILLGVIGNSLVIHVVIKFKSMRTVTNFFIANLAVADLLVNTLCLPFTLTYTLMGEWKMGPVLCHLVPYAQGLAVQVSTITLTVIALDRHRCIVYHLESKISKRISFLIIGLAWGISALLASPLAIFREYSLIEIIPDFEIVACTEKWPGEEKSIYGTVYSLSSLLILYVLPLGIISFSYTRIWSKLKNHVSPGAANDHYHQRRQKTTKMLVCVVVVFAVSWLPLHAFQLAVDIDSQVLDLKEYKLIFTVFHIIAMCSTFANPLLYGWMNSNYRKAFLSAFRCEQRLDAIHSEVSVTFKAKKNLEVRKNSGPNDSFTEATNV
Type of assay: functional, cell-based.

For assay [8], the target named is T3, Neuropeptide Y receptor type 1 (Homo sapiens, UniProt P25929).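 Note: HEK293 cells with a CNG channel challenged with NPY then isoproterenol; potency as antagonist that reverses NPY suppression of cAMP signal.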
T3 sequence (P25929 whole entry): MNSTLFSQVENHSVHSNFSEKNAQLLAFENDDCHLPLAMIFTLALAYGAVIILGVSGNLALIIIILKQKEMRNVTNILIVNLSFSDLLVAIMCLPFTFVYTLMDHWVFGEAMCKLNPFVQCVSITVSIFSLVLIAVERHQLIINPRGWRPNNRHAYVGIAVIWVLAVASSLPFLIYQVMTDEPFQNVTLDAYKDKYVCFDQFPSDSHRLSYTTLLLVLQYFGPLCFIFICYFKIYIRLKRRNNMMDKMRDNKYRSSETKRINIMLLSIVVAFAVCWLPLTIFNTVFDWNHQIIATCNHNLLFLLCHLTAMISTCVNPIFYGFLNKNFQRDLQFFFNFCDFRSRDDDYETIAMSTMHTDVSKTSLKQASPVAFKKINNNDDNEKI
Type of assay: functional.

Another assay concerns the target NS3 (Hepatitis C virus, UniProt A3EZJ3). In words: PubChem AID 2173. Further details: species or system Hepacivirus hominis.
Assay [9] has as its target Beta-lactamase (Pseudomonas aeruginosa, UniProt Q79MP6).
The target in assay [10] is T4, Insulin-degrading enzyme (Homo sapiens, UniProt P14735).
T4 sequence (P14735 whole entry): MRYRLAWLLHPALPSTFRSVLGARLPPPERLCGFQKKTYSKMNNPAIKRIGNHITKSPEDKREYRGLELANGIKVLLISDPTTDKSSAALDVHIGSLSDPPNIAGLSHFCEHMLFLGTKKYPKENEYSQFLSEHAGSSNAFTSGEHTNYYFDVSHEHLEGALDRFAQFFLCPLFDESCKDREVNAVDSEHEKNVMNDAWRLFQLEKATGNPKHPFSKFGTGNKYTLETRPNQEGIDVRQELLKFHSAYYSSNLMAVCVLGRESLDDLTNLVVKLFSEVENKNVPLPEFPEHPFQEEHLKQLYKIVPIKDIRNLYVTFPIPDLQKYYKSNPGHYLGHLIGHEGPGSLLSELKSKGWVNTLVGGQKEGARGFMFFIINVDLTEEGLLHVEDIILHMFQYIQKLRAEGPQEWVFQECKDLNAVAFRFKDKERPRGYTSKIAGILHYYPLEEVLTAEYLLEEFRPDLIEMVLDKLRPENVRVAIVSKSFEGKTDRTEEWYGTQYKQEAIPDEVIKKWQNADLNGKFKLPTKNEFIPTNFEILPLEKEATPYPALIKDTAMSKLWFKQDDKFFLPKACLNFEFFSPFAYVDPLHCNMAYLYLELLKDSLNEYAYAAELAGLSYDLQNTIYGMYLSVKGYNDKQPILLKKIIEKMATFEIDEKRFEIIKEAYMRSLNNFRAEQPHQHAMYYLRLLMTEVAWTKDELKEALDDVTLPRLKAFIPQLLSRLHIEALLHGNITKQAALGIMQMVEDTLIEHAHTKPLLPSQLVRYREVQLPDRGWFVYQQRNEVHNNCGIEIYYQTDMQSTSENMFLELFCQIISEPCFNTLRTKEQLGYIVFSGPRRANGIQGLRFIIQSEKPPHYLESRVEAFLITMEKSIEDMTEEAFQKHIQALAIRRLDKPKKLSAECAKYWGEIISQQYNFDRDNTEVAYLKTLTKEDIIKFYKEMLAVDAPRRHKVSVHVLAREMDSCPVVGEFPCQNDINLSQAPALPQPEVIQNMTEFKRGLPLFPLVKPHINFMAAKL
In words: activators of endogenous IDE in HEK cells, dose response, cell-based, fluorescence polarization (AID 588439). Type of assay: functional.

The target of assay [11] is E3 ubiquitin-protein ligase XIAP (Homo sapiens, UniProt P98170). The assay can be described thus: Counter Screen using XIAP-Bir3 for Chemical Antagonists of Bir1/2 domains of IAP-family anti-apoptotic proteins. [Related pubchem assays (depositor defined):AID1018, AID1449, AID1514, AID1638, AID1749, AID1750, AID488957, AID488963]. (Counterscreens check selectivity or assay interference.)

For assay [12], the system named is HEK293. In words: optical interference in Abeta FP readout, dose response, artefact control for IDE activator project, biochemical, fluorescence polarization (AID 588442). The conditions noted are these: Homo sapiens. Type of assay: functional, cell-based.
Assay [13] relates to HEK293. In words: HEK cell cytotoxicity by LDH release, dose response, cytotoxicity control for IDE activator project, fluorescence, HEK cells (AID 588440).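 Note: cytotoxicity by LDH release measuring loss of membrane integrity.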 Type of assay: functional, cell-based. Conditions: Homo sapiens. For orientation: Release of lactate dehydrogenase indicates damage to the cell membrane.
The target in assay [14] is Beta-lactamase (Salmonella choleraesuis (strain SC-B67), UniProt Q5J463).
The target of assay [15] is T4, Insulin-degrading enzyme. In words: activators of recombinant IDE enzyme, dose response, counter-screen for IDE activator project, biochemical, fluorescence polarization (AID 588681).
The target in assay [16] is T5, Aryl hydrocarbon receptor (Homo sapiens, UniProt P35869).
T5 sequence (P35869 whole entry): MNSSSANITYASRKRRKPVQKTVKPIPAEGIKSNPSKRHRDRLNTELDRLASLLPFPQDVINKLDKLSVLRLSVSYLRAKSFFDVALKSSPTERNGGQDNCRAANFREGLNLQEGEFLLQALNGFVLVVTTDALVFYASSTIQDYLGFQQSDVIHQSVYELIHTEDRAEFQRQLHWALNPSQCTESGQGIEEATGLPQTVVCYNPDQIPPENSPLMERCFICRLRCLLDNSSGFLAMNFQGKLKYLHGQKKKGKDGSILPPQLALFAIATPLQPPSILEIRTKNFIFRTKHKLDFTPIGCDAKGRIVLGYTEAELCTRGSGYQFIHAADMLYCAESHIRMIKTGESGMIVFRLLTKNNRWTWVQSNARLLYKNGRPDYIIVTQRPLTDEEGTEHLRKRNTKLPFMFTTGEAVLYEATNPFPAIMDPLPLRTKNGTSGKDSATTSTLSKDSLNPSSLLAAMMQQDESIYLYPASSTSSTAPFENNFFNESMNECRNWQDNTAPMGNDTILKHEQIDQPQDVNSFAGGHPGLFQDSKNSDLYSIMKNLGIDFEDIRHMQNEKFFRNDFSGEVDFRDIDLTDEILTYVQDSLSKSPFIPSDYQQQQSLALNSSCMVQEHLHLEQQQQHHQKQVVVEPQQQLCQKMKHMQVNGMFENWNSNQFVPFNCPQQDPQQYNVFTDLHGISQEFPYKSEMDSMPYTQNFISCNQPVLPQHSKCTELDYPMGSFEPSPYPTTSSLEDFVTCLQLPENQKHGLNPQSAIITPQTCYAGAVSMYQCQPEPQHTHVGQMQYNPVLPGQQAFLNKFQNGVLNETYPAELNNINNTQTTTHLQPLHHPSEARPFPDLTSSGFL
The assay can be described thus: Luminescence-based cell-based high throughput dose response assay for activators of the Aryl Hydrocarbon Receptor (AHR). [Related pubchem assays: 2796 (Primary screen (AHR activators in singlicate)), 2845 (Confirmation screen (AHR activators in triplicate)), 434939 (Counterscreen (PXR activators in triplicate)), 2804 (Summary (AHR activators))]. In kind it is ADME.

A short description of assay [17]: cytotoxicity in KRAS-transformed pancreatic duct cells, primary screen, cell-based, fluorescence, HTS (AID 431). The conditions noted are these: Homo sapiens. Type of assay: functional.
Assay [18] in a line: cytotoxicity in HPDE-C7 cells, cell-based, fluorescence, HTS (AID 430). Conditions: Homo sapiens. In kind it is functional.

Activity calls are given as the source filed them.

Sequence of NS3 (A3EZJ3 whole entry): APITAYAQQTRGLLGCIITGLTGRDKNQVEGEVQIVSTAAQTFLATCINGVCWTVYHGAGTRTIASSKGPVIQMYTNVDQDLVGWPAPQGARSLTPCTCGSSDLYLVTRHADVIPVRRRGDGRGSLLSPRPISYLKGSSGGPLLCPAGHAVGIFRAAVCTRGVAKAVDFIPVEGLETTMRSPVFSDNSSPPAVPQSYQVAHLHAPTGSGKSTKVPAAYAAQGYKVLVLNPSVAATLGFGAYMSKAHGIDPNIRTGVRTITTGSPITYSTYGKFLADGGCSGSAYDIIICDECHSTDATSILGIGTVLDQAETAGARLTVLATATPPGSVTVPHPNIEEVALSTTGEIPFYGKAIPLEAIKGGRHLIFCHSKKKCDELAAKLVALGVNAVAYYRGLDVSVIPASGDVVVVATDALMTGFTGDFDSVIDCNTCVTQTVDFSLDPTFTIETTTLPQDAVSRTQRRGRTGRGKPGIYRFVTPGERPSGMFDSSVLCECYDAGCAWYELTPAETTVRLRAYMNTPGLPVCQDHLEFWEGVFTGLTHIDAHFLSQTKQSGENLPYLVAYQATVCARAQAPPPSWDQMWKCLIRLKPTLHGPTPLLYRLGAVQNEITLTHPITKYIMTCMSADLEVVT
Sequence of Cytochrome P450 2D6 (P10635 whole entry): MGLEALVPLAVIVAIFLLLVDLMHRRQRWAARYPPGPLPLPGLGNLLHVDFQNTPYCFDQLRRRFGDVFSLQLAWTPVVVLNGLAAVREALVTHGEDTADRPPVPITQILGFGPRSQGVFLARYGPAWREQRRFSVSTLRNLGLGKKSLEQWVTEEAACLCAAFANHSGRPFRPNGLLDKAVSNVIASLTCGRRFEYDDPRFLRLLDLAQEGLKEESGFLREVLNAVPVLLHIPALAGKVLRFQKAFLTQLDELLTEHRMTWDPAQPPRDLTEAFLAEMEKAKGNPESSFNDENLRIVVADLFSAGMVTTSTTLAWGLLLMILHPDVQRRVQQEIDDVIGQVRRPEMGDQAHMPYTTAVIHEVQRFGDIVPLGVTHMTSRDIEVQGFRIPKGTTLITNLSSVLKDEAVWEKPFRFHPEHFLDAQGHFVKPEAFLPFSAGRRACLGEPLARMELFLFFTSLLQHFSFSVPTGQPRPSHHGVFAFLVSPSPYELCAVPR
Sequence of Large T antigen (P03070 whole entry): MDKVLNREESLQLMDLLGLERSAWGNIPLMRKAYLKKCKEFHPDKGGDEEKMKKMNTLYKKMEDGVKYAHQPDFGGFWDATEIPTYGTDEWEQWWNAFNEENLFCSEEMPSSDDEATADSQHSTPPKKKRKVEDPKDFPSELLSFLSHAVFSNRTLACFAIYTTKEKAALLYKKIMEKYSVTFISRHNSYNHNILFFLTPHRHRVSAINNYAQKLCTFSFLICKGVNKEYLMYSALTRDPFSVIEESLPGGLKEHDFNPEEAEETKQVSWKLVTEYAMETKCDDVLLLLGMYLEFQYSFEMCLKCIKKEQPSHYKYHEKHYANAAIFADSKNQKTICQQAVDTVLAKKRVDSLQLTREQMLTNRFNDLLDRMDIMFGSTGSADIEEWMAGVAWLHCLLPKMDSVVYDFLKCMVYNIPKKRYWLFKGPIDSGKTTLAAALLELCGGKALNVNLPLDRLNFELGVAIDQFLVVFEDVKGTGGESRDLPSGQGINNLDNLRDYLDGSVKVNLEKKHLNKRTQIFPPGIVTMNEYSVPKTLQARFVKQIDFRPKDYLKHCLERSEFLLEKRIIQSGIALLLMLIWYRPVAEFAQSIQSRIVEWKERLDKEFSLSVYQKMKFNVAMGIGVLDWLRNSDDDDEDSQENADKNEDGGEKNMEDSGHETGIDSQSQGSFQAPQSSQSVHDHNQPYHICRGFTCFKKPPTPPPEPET
Sequence of ATP-dependent molecular chaperone HSP82 (C4YTQ8 whole entry): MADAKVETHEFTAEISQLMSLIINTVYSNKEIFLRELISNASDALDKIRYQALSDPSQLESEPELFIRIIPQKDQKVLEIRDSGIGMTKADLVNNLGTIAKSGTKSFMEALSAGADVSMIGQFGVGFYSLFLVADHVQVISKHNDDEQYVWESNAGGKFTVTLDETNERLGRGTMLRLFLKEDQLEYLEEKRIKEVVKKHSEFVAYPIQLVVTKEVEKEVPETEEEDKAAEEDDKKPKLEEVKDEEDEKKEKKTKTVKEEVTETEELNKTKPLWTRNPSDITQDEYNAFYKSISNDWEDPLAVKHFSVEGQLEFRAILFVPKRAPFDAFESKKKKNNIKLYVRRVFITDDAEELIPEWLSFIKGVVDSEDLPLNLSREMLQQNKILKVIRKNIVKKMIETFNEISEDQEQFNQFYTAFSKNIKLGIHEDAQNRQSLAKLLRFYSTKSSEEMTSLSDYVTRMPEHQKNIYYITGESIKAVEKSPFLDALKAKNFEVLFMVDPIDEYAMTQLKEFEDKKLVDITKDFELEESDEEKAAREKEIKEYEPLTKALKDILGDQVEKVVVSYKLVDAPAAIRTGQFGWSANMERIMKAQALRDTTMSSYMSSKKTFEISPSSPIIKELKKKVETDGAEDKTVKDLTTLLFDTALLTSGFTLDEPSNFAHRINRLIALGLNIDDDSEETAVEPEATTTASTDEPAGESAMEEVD
Sequence of E3 ubiquitin-protein ligase XIAP (P98170 whole entry): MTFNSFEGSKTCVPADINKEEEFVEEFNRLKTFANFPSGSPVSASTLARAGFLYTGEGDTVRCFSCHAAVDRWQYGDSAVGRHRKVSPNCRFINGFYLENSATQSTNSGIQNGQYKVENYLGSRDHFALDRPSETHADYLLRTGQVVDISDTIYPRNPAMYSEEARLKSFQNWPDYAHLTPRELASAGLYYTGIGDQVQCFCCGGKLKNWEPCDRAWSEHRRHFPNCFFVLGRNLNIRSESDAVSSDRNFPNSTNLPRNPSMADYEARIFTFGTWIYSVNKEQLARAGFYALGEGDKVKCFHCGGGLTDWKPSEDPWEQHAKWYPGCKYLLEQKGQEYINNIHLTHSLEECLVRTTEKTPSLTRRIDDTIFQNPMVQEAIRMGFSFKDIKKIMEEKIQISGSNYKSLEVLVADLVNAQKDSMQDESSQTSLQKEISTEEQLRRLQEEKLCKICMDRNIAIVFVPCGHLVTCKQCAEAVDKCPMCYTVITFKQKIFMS
Sequence of Beta-lactamase (Salmonella choleraesuis (strain SC-B67), UniProt Q5J463) (Q5J463 whole entry): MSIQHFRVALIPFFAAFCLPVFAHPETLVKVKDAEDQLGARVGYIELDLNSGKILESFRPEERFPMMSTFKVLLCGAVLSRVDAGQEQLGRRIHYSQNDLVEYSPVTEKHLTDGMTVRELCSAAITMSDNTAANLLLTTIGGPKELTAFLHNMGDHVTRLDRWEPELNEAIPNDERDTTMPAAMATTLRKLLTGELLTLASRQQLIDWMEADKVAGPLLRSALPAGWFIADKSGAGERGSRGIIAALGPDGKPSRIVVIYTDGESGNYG
Sequence of Beta-lactamase (Pseudomonas aeruginosa, UniProt Q79MP6) (Q79MP6 whole entry): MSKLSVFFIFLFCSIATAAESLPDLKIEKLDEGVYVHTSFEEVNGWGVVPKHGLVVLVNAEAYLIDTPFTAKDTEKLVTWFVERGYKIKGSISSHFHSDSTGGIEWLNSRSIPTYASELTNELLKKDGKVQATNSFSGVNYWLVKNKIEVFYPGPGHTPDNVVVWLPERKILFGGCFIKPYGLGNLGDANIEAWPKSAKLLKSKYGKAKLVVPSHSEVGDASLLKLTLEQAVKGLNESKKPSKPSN

In the case of `COC(=O)C1C(C)OC(=O)NC1c1ccccc1` (stereo unspecified), the AC50 at Cytochrome P450 2D6 was 3.16 µM (inconclusive).

Regarding `O=C(N/N=C/c1cc(Br)c(O)c(Br)c1)c1cc2c(ccc3ccccc32)o1`, the EC50 (in general, the concentration giving half of the maximal effect) in assay [1] was 0.763 µM (active); in [2] it was 64.7 µM (active); in assay [3], 1.45 µM (active); in assay [4] it was 2.58 µM (active). In addition, the results for the IC50 (at Large T antigen; in assay [5]) were 19.9 µM (active) and > 50 µM (active), respectively.

Regarding `CCC[C@@H](CNC)NC[C@H](Cc1ccccc1)NCCCCc1ccccc1`, in assay [6], the IC50 – broadly, the concentration that gives 50% inhibition – is 5.4 µM (active).

Regarding `CCCCNC(=O)c1onc(CSc2ccccc2F)c1C(=O)O`, the IC50 was 13.3 µM (not active) in assay [7] and 14.7 µM (not active) in [8].

For `O=c1ccc2c(-c3ccccc3)c3ccc(O)cc3oc-2c1`, the IC50 is 7.38 µM (active) at NS3; 0.399 µM (active) on Beta-lactamase [9]; > 20 µM (inactive) in assay [11]; > 89.1 µM (inactive) in the assay with HEK293 [13]; 0.19 µM (active) at Beta-lactamase [14]. The EC50 on Insulin-degrading enzyme [10], in the assay on HEK293 [12] and at Insulin-degrading enzyme [15] was > 54.6 µM (inactive) throughout.

Regarding `O=C(/C=C\c1cccs1)c1c(O)ccc2ccc(=O)oc12`, in [16], the EC50 was 3.41 µM (active).

`Cc1ccccc1-c1nc(-c2cccnc2)no1`: in assay [16], the EC50 was 1.74 µM (active).

For the compound `Nn1c(Cc2cccc3ccccc23)nnc1SCc1c(Cl)cccc1Cl`, the IC50 in assay [7] was 4.3 µM (active); in [8], 5.1 µM (active).

Consider `C=C(C)C(O)/C=C/c1ccc(Br)cc1` (stereo unspecified), for which the AC50 at Cytochrome P450 2D6 was 3.16 µM (inconclusive).

`O=C(c1ccc2nc(-c3ccco3)c(-c3ccco3)nc2c1)N1CCN(c2ccccc2)CC1`: the IC50 against NS3 was 19.7 µM (not active). The EC50 is > 20 µM (not active) in assay [17] and 18 µM (active) in assay [18].
